The text below walks through data of article PMC7972453, “The allosteric modulation of complement C5 by knob domain peptides” (eLife, 2021).

For test [1], the target named is human C5b-6 (Homo sapiens, UniProt P01031+P13671). Description: SPR single-cycle kinetics, binding to C5b-6. Details: Upon cleavage of C5a, the remaining domains of the α-chain undergo a substantial conformational change; purchased Complement Technologies, Tyler, TX. Here is the method: On a Biacore 8K (GE Healthcare, Amersham, UK), human C5b was immobilised on a CM5 chip (GE Healthcare, Amersham, UK). Flow cells were activated using a standard immobilisation protocol: EDC/NHS was mixed at 1:1 ratio (flow rate, 10 µL/min; contact time, 30 s). C5b, at 1 µg/mL, or C5b-6 (Complement Technologies, Tyler, TX), at 2 µg/mL, in pH 4.5 sodium acetate buffer, were immobilised on flow cell two only (flow rate, 10 µL/min; contact time, 420 s). Finally, ethanolamine was applied to both flow cells (flow rate, 10 µL/min; contact time, 420 s). A final immobilisation level of 500–700 RUs was obtained for C5b and 1000–1150 RUs were obtained for C5b-6. Single-cycle kinetics were measured using a seven-point, threefold serial dilution (spanning a range of 1 µM to 1.4 nM) in HBS-EP buffer (GE Healthcare, Amersham, UK). A high flow rate of 40 µL/min was used, with a contact time of 300 s and a dissociation time of 2700 s. Binding to the reference surface was subtracted, and the data were fitted to a single-site binding model using Biacore evaluation software. All sensorgrams were inspected for evidence of mass transport limitation using the flow rate-independent component of the mass transfer constant (tc).
Chain of human C5b-6 (P01031 752-1676 limits assumed): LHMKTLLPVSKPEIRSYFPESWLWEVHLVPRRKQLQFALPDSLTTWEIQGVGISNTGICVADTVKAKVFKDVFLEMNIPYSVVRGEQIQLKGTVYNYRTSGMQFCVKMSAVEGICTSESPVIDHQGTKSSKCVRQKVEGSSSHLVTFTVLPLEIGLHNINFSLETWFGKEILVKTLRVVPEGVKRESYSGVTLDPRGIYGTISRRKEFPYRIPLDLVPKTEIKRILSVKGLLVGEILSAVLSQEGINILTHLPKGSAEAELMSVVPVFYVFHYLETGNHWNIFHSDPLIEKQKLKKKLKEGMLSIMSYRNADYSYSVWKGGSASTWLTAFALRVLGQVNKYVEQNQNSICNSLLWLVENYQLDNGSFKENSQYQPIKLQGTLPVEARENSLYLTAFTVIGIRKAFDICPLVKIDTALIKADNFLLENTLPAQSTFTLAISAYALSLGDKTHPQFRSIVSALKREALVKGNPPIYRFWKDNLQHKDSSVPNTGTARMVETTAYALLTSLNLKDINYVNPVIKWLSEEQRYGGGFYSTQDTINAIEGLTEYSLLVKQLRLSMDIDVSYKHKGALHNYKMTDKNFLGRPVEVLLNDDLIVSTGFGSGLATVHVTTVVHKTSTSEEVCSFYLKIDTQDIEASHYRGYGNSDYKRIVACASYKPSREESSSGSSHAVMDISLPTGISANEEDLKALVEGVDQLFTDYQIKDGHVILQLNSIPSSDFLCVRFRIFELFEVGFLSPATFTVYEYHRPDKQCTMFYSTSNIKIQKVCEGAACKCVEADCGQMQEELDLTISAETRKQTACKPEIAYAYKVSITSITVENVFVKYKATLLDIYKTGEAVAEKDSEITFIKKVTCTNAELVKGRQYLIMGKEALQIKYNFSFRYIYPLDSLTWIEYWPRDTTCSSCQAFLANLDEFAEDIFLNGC
Chain of human C5b-6 (P01031 19-673 limits assumed): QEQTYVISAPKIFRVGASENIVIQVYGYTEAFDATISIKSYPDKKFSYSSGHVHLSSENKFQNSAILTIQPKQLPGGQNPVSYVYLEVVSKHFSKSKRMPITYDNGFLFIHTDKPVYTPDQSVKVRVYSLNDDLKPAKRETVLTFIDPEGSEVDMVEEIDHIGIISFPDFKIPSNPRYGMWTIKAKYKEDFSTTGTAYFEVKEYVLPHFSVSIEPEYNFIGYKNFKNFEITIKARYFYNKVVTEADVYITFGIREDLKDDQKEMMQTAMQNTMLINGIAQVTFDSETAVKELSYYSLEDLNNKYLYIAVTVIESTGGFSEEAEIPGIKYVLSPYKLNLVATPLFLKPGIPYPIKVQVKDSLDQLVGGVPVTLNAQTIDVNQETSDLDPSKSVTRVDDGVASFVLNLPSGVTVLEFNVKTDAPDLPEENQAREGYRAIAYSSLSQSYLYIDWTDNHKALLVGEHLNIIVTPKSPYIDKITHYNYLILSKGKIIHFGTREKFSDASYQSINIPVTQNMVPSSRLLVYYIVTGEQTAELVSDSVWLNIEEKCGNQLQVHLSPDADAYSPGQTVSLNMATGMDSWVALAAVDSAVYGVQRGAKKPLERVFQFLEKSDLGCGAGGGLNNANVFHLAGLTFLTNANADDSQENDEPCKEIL
Chain of human C5b-6 (P13671 22-934 partner): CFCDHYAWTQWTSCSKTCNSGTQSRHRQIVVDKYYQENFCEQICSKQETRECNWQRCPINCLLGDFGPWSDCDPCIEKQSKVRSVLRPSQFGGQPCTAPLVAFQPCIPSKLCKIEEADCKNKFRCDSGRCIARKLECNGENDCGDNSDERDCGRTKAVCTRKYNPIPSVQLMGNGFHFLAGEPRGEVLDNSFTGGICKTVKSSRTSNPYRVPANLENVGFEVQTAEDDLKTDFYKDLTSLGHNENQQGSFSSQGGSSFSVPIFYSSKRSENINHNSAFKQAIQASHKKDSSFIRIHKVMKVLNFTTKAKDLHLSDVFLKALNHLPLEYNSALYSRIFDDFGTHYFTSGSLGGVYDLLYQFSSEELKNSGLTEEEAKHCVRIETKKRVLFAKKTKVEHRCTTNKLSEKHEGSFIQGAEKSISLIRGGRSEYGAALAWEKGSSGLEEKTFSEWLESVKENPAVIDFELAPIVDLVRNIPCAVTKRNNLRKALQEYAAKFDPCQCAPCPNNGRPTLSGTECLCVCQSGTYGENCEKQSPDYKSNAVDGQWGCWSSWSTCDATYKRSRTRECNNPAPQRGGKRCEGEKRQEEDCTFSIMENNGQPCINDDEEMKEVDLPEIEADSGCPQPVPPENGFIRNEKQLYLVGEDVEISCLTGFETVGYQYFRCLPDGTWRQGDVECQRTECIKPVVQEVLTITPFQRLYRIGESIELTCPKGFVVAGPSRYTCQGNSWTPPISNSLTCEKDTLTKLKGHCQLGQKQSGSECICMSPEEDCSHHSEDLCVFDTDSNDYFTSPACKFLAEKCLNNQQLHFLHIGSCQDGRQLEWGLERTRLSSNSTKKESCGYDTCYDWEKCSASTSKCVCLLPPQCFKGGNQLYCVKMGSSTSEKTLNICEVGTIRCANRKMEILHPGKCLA
Table 4.2. SPR single-cycle kinetics of knob domains binding to human C5b-6.

Test [2] deals with C5 activation by the AP. Nature of the test: Complement activation assays, alternative pathway (overall). It is filed as biochemical. The conditions noted are these: C5a release, C5b neo-epitope formation and C9 deposition ELISAs; human serum. On the procedure: For functional characterisation of the peptides, we performed complement assays for CP and AP activation in human serum, assessing C5b neo-epitope formation and C5a release (schematically presented in Figure 1A, B), in combination with orthogonal ELISAs, measuring C3b and C9 deposition.
(§1) For the C3 and C9 ELISAs, microtiter plates (MaxiSorp; Nunc) were incubated overnight at 4°C with 50 µL of a solution of in 75 mM sodium carbonate (pH 9.6) containing either 2.5 µg/mL aggregated human IgG (Sigma-Aldrich, Gillingham, UK) for CP or 20 µg/mL zymosan (Sigma-Aldrich, Gillingham, UK) for AP. As a negative control, wells were coated with 1% (w/v) bovine serum albumin (BSA)/PBS. […] Complement activation was assessed through detection of deposited complement activation factors using specific antibodies against C3b (rat anti-human C3d HM2198, Hycult, Uden, The Netherlands) and C9 (goat anti-human C9, A226, Complement Technologies Tyler, TX) at a 1:1000 dilution. Bound primary antibodies were detected with […]-conjugated goat anti-rat (ab97057, Abcam, Cambridge, UK) or rabbit anti-goat (P0449, Agilent Dako, Santa Clara, CA) secondary antibodies at a 1:1000 dilution. Bound HRP-conjugated antibodies were detected using TMB One solution (Eco-TEK – manufactured by Bio-TEK, Winooski, VT) with absorbance measured at 450 nm. […]

Test [3] concerns alternative pathway mediated C9 deposition. Description: Inhibition of alternative pathway mediated C9 deposition (ELISA). Type of test: biochemical, human. The conditions noted are these: 5% serum, n=3, ND* = Not detected. Here is the method: as §1, with “(BSA)/PBS. Microtiter plates were washed four times with 250 µL of wash buffer (50 mM Tris-HCl), 150 mM NaCl and 0.1% Tween 20 (pH 8) between each step of the procedure. Wells were blocked using 250 µL of 1% (w/v) BSA/PBS for 2 hr at room temperature.” for “(BSA)/PBS.”
In general terms: An ELISA detects its analyte on a solid surface through an enzyme-linked reagent.

Where two headings read alike, the source gives them in different places. Bridges are numbered along the chain shown (N, C = ends). Where no end group is shown, it is not given here.

As to “SVCPDGFDWGYGCAAGSSRFCTRHDWCCYDERADSHTYGFCTGNRVENLYFQ (disulfide 3-28, 13-21, 27-41) [K8]”, the koff was 0.000295 s⁻¹ in test [1] (read-out: mean koff, Biacore 8K, HBS-EP, summary of n=4); 0.000282 s⁻¹ in test [1] (replicate n=1); 0.000384 s⁻¹ in test [1] (replicate n=2); 0.00024 s⁻¹ in test [1] (replicate n=3); 0.000277 s⁻¹ in test [1] (replicate n=4). In addition, the kon in test [1] (read-out: mean kon, Biacore 8K, HBS-EP, summary of n=4) stood at 12500 M⁻¹ s⁻¹; in test [1] (replicate n=1) it was 10100 M⁻¹ s⁻¹; in test [1] (replicate n=2), 12100 M⁻¹ s⁻¹; in test [1] (replicate n=4) it was 15600 M⁻¹ s⁻¹. For the same sequence, the Stoichiometric ratio in test [1] (replicate n=1) worked out at 0.3; in test [1] (replicate n=2), 0.3; in test [1] (replicate n=3), 0.5; in test [1] (replicate n=4), 0.3. Also, the Mean stoichiometric ratio in test [1] (summary of n=4) worked out at 0.4. The “inhibition of C5 activation, AP assays (in words)” value in test [2] was “partially inhibiting both the AP and CP”. The “Average Emax” value in test [3] (AP C9 deposition) came out at 73.3%. For the same sequence, in test [3] (AP, Mg-EGTA pH 7.3, zymosan plate, preincubated on ice 30 min, 60 min 37°C, read-out: Geomean IC50), the 50% inhibitory concentration (IC50) was 0.232 µM.

As usually defined, the koff is the rate constant with which the complex falls apart. By kon is commonly meant the rate constant with which the complex forms. One may read the IC50 as the concentration at which inhibition is half-maximal.
